According to patent publication US6635479B1, “Hypothalamus-specific polypeptides” (The Scripps Research Institute, priority 1996, dated 2003):
Ends that are not written are not given here.

What was measured:
[1] = tested on: synaptically-coupled rat hypothalamic neurons; experiment: voltage clamp recording of postsynaptic currents in cultured hypothalamic neurons; format: cell-based
Description: To test this hypothesis, 10-day cultures of synaptically-coupled rat hypothalamic neurons were prepared and postsynaptic currents were recorded under voltage clamp.
Rat hypothalamus from 18-day embryos was cultured for 10 days in vitro. The mediobasal hypothalamus was removed from embryonic day 18 Sprague Dawley rats. The tissue was enzymatically digested in a mild protease solution (10 U/ml papain and 0.2 mg/ml L-cysteine in Earle's balanced salt solution) for 30 minutes. Next, the tissue was pelleted, and the protease solution was removed. Tissue was then suspended in standard tissue culture medium (glutamate- and […] DMEM supplemented with 10% fetal bovine serum, 100 U/ml penicillin/streptomycin, and 6 gm/l glucose) and then triturated into a single-cell suspension. Cells were washed and pelleted an additional three times. The single-cell suspension was plated onto 22 mm^2 glass coverslips that had been coated with high-molecular-weight (540,000 Da) poly-D-lysine. High-density cultures (200,000/cm^2) were used for all experiments. Hypothalamic neural cultures were maintained in a Napco 3600 incubator (37 degree Celsius and 5% CO2) until they were ready for use. To limit non-neuronal cell proliferation cytosine arabinofuranoside (1 μM) was added to the tissue culture medium 1 day after plating.
Synaptically coupled hypothalamic neurons were recorded in voltage clamp with a whole cell pipette (holding potential=−60 mV). This recording is typical of 9 of 12 cells examined under these conditions. […] Inset boxes show higher resolution of the events indicated by the dotted line. Both boxes (in FIGS. 7A and B) were recorded with an identical delay after hcrt2 administration. A less mature hypothalamic neuron after 4 days of culture was unresponsive to 1 μM hcrt2 (FIG. 7B). Pipette solution contained 128 mM KMeSO4, 27 mM KCl, 0.4 mM EGTA, 1 mM ATP, and 0.5 mM GTP.

[2] = food intake after intracerebroventricular infusion; format: in vivo, rats; details: 5 μg ICV; monitored over 2 hours following administration
Description: (§1) Synthetic, amidated hcrt2 peptide at different concentrations was infused intracerebroventricularly in rats and body temperature by was monitored telemetry. Stereotactic ablation studies have previously implicated the dorsal-lateral hypothalamus in feeding behavior, blood pressure, and central regulation of immune function, although precise nuclei have not been correlated with these activities. A threshold-type response was obtained in which, at the highest dose, 10 μg, body temperature dropped from 37.7 to 36.7 degrees Celsius over 30 minutes following administration, then recovered to normal over 2 hours. Food intake was monitored over 2 hours following administration and a 40% reduction in food intake was measured at a dose of 5 μg. […] The presumed target cells of hypocretin may not be very accessible by this unphysiological mode of administration. Local injection or intravenous administration of hypocretin might be more suitable for physiological studies.

[3] = tested on: synaptically coupled hippocampal dentate granule neurons in culture; experiment: voltage clamp recording in cultured hippocampal dentate granule neurons; format: cell-based
[4] = body temperature by telemetry after intracerebroventricular infusion; format: in vivo, rats
Description: as §1

[5] = 1 μM applied to bath, 10 days in vitro, holding potential −60 mV
[6] = 1 μM, 10-day cultures, voltage clamp

## hcrt2: synthetic peptide corresponding to amidated hcrt2; preprohypocretin residues about 70 to 96 (SEQ ID NO:10; unamidated form SEQ ID NO:9) (PGPPGLQGRLQRLLQANGNHAAGILTM-NH2)
[1]; [5]
  cells showing the typical recording (increased PSC frequency): 9 of 12
  increase in frequency of postsynaptic events (PSCs): ≤ 400%
[1]; [6]
  cells showing no response: 25%
  neurons tested showing substantial, reversible increase in the frequency of postsynaptic currents: 75%
[1]; 1 μM, 4 days of culture (FIG. 7B)
  response of less mature hypothalamic neuron after 4 days of culture: unresponsive
[1]; after washout of 1 μM
  frequency of PSCs after washout of the peptide: returned to normal baseline levels
[1]; application of 1 μg, isolated in vitro rat hypothalamic cells
  electrical responses in voltage clamp experiments (FIGS. 7A-7B legend): produced electrical responses in adult but not immature neurons
[1]; neurons 3-5 days in culture
  response of hypothalamic neurons in culture for only 3-5 days: little response
[2]
  reduction in food intake: 40%
[3]
  response of hippocampal dentate granule neurons: no response
[4]; 10 μg (highest dose) ICV, dropped from 37.7 over 30 minutes
  body temperature after administration: 36.7 degrees Celsius
[4]; 10 μg ICV
  time to recovery of body temperature to normal: 2 h
